From PubChem BioAssay AID248 (DTP/NCI, 2004)
Values joined by “and” are separate entries in the source; they are usually repeats but may differ in a detail not shown here. Equal values may be shown once. Inconclusive results and toxic doses are left out. Peptide text beside a SMILES is read from it. * marks the point of attachment. Cbz = O=C(OCc1ccccc1)*

System: L1210 leukemia ip in BDF1 mice, survival T/C
Test: NCI In Vivo Anticancer Drug Screen. Data for tumor model L1210 Leukemia (intraperitoneal) in B6D2F1 (BDF1) mice
Details: endpoint: mean survival time, higher = longer survival
Outline: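 Survival endpoint. Drug-treated group vs vehicle group, expressed as T divided by C. Tumor passaged by transplantation.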

[1] = dose: 25.0 mg/kg/injection, schedule: Q01DX009 (ip), vehicle: saline
[2] = dose: 50.0 mg/kg/injection, schedule: Q01DX009 (ip), vehicle: saline
[3] = dose: 100.0 mg/kg/injection, schedule: Q01DX009 (ip), vehicle: saline
[4] = dose: 100.0 mg/kg/injection, schedule: Q04DX003 (ip), vehicle: saline
[5] = dose: 100.0 mg/kg/injection, schedule: Q01DX001 (ip), vehicle: saline
[6] = dose: 200.0 mg/kg/injection, schedule: Q01DX001 (ip), vehicle: saline
[7] = dose: 400.0 mg/kg/injection, schedule: Q01DX001 (ip), vehicle: saline
[8] = dose: 200.0 mg/kg/injection, schedule: Q01DX009 (ip), vehicle: saline
[9] = dose: 100.0 mg/kg/injection, schedule: Q01DX001 (ip), vehicle: Klucel (hydroxypropylcellulose) (HPC)
[10] = dose: 200.0 mg/kg/injection, schedule: Q01DX001 (ip), vehicle: Klucel (hydroxypropylcellulose) (HPC)

What does the source list for c1ccc2c(c1)C[N+](=C1CCCCC1)Cc1ccccc1-2?
T/C [1]: 103 % of control; T/C [2]: 106 % of control; T/C [3]: 101 % of control; T/C [4]: 99 % of control

For Cc1ncnc2[nH]c(=S)[nH]c12, which T/C (dose: 75.0 mg/kg/injection, schedule: Q01DX001 (ip), vehicle: saline) is on record?
Its T/C is 105 % of control.

What about the T/C (dose: 150.0 mg/kg/injection, schedule: Q01DX001 (ip), vehicle: saline) of the same compound?
Its T/C is 101 % of control.

What about the T/C (dose: 300.0 mg/kg/injection, schedule: Q01DX001 (ip), vehicle: saline) of the same compound?
The T/C was 100 % of control.

With O=C1NC(C(=O)O)CC1O (stereo not given) as the compound, how does the T/C (dose: 50.0 mg/kg/injection, schedule: Q01DX001 (ip), vehicle: saline) read?
Its T/C is 100 % of control.

What about the T/C [5] of the same compound?
The T/C was 95 % of control and 97 % of control.

What about the T/C [6] of the same compound?
The T/C was 98 % of control and 88 % of control.

What about the T/C [7] of the same compound?
Its T/C is 97 % of control.

Which results are given for CC(NC(=O)OCc1ccccc1)C(=O)NCCC(N)=O (stereo not given)?
T/C (dose: 100.0 mg/kg/injection, schedule: Q01DX009 (ip), vehicle: saline with Tween-80): 91 % of control; T/C (dose: 200.0 mg/kg/injection, schedule: Q01DX009 (ip), vehicle: saline with Tween-80): 88 % of control

OCCOc1nc(Cl)nc(Cl)c1Cl (tested in a mixture with another compound) was tested. Which T/C (dose: 12.5 mg/kg/injection, schedule: Q01DX009 (ip), vehicle: Klucel (hydroxypropylcellulose) (HPC)) did it give?
The T/C was 110 % of control.

What about the T/C (dose: 25.0 mg/kg/injection, schedule: Q01DX009 (ip), vehicle: Klucel (hydroxypropylcellulose) (HPC)) of the same compound?
The T/C was 96 % of control.

And the T/C (dose: 50.0 mg/kg/injection, schedule: Q01DX009 (ip), vehicle: Klucel (hydroxypropylcellulose) (HPC))?
The T/C was 100 % of control and 91 % of control.

CCN(CC)CCSC(=O)c1ccccc1 was tested. Which T/C [2] did it give?
Its T/C is 94 % of control.

What about the T/C [3] of the same compound?
Its T/C is 100 % of control.

What about the T/C [8] of the same compound?
The T/C was 100 % of control.

How did the T/C (dose: 150.0 mg/kg/injection, schedule: Q01DX001 (ip), vehicle: carboxymethylcellulose (CMC)) turn out when O=[N+]([O-])c1ccc(CS(=O)(=O)Cc2ccc([N+](=O)[O-])cc2)cc1 was run?
The T/C was 93 % of control.

What about the T/C (dose: 300.0 mg/kg/injection, schedule: Q01DX001 (ip), vehicle: carboxymethylcellulose (CMC)) of the same compound?
The T/C was 89 % of control.

COC(=O)CNC(=O)C(CC(C)C)NC(=O)C(CC(C)C)NC(=O)C(C)NC(=O)OCc1ccccc1 (stereo not given) (Cbz-ALLG-OMe; configuration not given here) was tested. Which T/C [4] did it give?
The T/C was 94 % of control.

What about the T/C (dose: 200.0 mg/kg/injection, schedule: Q04DX003 (ip), vehicle: saline) of the same compound?
Its T/C is 98 % of control.

What about the T/C (dose: 400.0 mg/kg/injection, schedule: Q04DX003 (ip), vehicle: saline) of the same compound?
The T/C was 98 % of control.

For Nc1cc2ccccc2c2c1ccc1ccccc12, which T/C (dose: 87.5 mg/kg/injection, schedule: Q04DX003 (ip), vehicle: Klucel (hydroxypropylcellulose) (HPC)) is on record?
The T/C was 91 % of control.

What about the T/C (dose: 100.0 mg/kg/injection, schedule: Q04DX003 (ip), vehicle: Klucel (hydroxypropylcellulose) (HPC)) of the same compound?
Its T/C is 97 % of control.

What about the T/C (dose: 175.0 mg/kg/injection, schedule: Q04DX003 (ip), vehicle: Klucel (hydroxypropylcellulose) (HPC)) of the same compound?
The T/C was 93 % of control.

And the T/C (dose: 200.0 mg/kg/injection, schedule: Q04DX003 (ip), vehicle: Klucel (hydroxypropylcellulose) (HPC))?
Its T/C is 94 % of control.

And the T/C (dose: 350.0 mg/kg/injection, schedule: Q04DX003 (ip), vehicle: Klucel (hydroxypropylcellulose) (HPC))?
Its T/C is 102 % of control.

For Cc1ccc(S(=O)(=O)OC2CCC(C(C)(C)C)C(Cl)C2)cc1 (stereo not given), which T/C [9] is on record?
Its T/C is 103 % of control.

And the T/C [10]?
The T/C was 87 % of control.

And the T/C (dose: 400.0 mg/kg/injection, schedule: Q01DX001 (ip), vehicle: Klucel (hydroxypropylcellulose) (HPC))?
Its T/C is 94 % of control.

For CCCCCCc1cc(CN(C2CCCCC2)C2CCCCC2)c(O)cc1O, which T/C [5] is on record?
The T/C was 92 % of control.

What about the T/C [7] of the same compound?
The T/C was 87 % of control.

CC(/C=N/N/C(N)=N\N)=N\N/C(N)=N/N was tested. Which T/C (dose: 15.0 mg/kg/injection, schedule: Q01DX Z (ip), vehicle: methylcellulose (MC)) did it give?
The T/C was 105 % of control.

What about the T/C (dose: 30.0 mg/kg/injection, schedule: Q01DX Z (ip), vehicle: methylcellulose (MC)) of the same compound?
Its T/C is 103 % of control.

And the T/C (dose: 60.0 mg/kg/injection, schedule: Q01DX Z (ip), vehicle: methylcellulose (MC))?
The T/C was 98 % of control.

And the T/C (dose: 120.0 mg/kg/injection, schedule: Q01DX Z (ip), vehicle: methylcellulose (MC))?
The T/C was 104 % of control.

And the T/C (dose: 240.0 mg/kg/injection, schedule: Q01DX Z (ip), vehicle: methylcellulose (MC))?
Its T/C is 98 % of control.

For O=NN(CC(F)(F)F)C(=O)NC1CCCCC1 (tested in a mixture with another compound), which T/C (dose: 8.0 mg/kg/injection, schedule: Q01DX001 (ip), vehicle: other) is on record?
Its T/C is 100 % of control.

And the T/C (dose: 16.0 mg/kg/injection, schedule: Q01DX001 (ip), vehicle: other)?
The T/C was 95 % of control.

And the T/C (dose: 31.0 mg/kg/injection, schedule: Q01DX001 (ip), vehicle: other)?
The T/C was 94 % of control.

What about the T/C (dose: 62.0 mg/kg/injection, schedule: Q01DX001 (ip), vehicle: other) of the same compound?
The T/C was 97 % of control.

What about the T/C (dose: 125.0 mg/kg/injection, schedule: Q01DX001 (ip), vehicle: other) of the same compound?
Its T/C is 101 % of control.

And the T/C (dose: 250.0 mg/kg/injection, schedule: Q01DX001 (ip), vehicle: other)?
The T/C was 94 % of control.

What about the T/C (dose: 375.0 mg/kg/injection, schedule: Q01DX001 (ip), vehicle: other) of the same compound?
The T/C was 101 % of control.

Which T/C (dose: 100.0 mg/kg/injection, schedule: Q04DX003 (ip), vehicle: other) does the source give for O=C(O)C1C2CC3C(C2)C31 (stereo not given) here?
Its T/C is 97 % of control.

What about the T/C (dose: 200.0 mg/kg/injection, schedule: Q04DX003 (ip), vehicle: other) of the same compound?
Its T/C is 98 % of control.

And the T/C (dose: 400.0 mg/kg/injection, schedule: Q04DX003 (ip), vehicle: other)?
The T/C was 88 % of control.

Which T/C [9] does the source give for c1ccc(-c2nnc3ccccn23)cc1 here?
The T/C was 102 % of control.

What about the T/C [10] of the same compound?
The T/C was 106 % of control.

What does the source list for COC(C)(C)C(Br)C(=O)OCC(=O)c1ccc(Br)cc1 (stereo not given)?
T/C (dose: 50.0 mg/kg/injection, schedule: Q01DX001 (ip), vehicle: carboxymethylcellulose (CMC)): 104 % of control; T/C (dose: 100.0 mg/kg/injection, schedule: Q01DX001 (ip), vehicle: carboxymethylcellulose (CMC)): 108 % of control; T/C (dose: 200.0 mg/kg/injection, schedule: Q01DX001 (ip), vehicle: carboxymethylcellulose (CMC)): 102 % of control; T/C (dose: 400.0 mg/kg/injection, schedule: Q01DX001 (ip), vehicle: carboxymethylcellulose (CMC)): 102 % of control

Which results are given for CCOC(=O)CNC(=O)N(CCCl)N=O?
T/C (dose: 150.0 mg/kg/injection, schedule: Q01DX Z (ip), vehicle: carboxymethylcellulose (CMC)): 102 % of control; T/C (dose: 250.0 mg/kg/injection, schedule: Q01DX Z (ip), vehicle: carboxymethylcellulose (CMC)): 112 % of control

How did the T/C [1] turn out when O=C(O)CSC1=NCCN1 was run?
Its T/C is 91 % of control.

And the T/C [2]?
Its T/C is 92 % of control.

What about the T/C (dose: 50.0 mg/kg/injection, schedule: Q04DX002 (ip), vehicle: saline) of the same compound?
The T/C was 106 % of control and 113 % of control.

What about the T/C [3] of the same compound?
Its T/C is 90 % of control.

What about the T/C (dose: 100.0 mg/kg/injection, schedule: Q04DX002 (ip), vehicle: saline) of the same compound?
The T/C was 100 % of control and 113 % of control.

What about the T/C [8] of the same compound?
The T/C was 93 % of control.

What about the T/C (dose: 200.0 mg/kg/injection, schedule: Q04DX002 (ip), vehicle: saline) of the same compound?
Its T/C is 260 % of control and 91 % of control.

And the T/C (dose: 400.0 mg/kg/injection, schedule: Q01DX009 (ip), vehicle: saline)?
Its T/C is 91 % of control.

What about the T/C (dose: 400.0 mg/kg/injection, schedule: Q04DX002 (ip), vehicle: saline) of the same compound?
Its T/C is 106 % of control.

Which results are given for CCOC(=O)/C(C#N)=C\c1ccc2n1Cc1cc3c(cc1N(C(C)=O)C2)OCO3?
T/C (dose: 25.0 mg/kg/injection, schedule: Q04DX002 (ip), vehicle: Klucel (hydroxypropylcellulose) (HPC)): 102 % of control; T/C (dose: 50.0 mg/kg/injection, schedule: Q04DX002 (ip), vehicle: Klucel (hydroxypropylcellulose) (HPC)): 95 % of control; T/C (dose: 100.0 mg/kg/injection, schedule: Q04DX002 (ip), vehicle: Klucel (hydroxypropylcellulose) (HPC)): 98 % of control

Which results are given for c1ccc(CSn2cnc3nc4ccccc4c-3c2)cc1?
T/C (dose: 100.0 mg/kg/injection, schedule: Q04DX003 (ip), vehicle: gum acacia): 91 % of control; T/C (dose: 200.0 mg/kg/injection, schedule: Q04DX003 (ip), vehicle: gum acacia): 91 % of control; T/C (dose: 400.0 mg/kg/injection, schedule: Q04DX003 (ip), vehicle: gum acacia): 91 % of control

How did the T/C [5] turn out when CC(N)CC(N)CC(=O)O (stereo not given) was run?
Its T/C is 96 % of control and 98 % of control.

What about the T/C [6] of the same compound?
Its T/C is 98 % of control and 104 % of control.

And the T/C [7]?
The T/C was 91 % of control and 102 % of control.
